The text below walks through data of US6514981B1, “Methods of modulating tyrosine protein kinase function with indolinone compounds” (Sugen, Inc., priority 1998, dated 2003).

The subject of the assay is HUV-EC-C cells. The assay can be described thus: HUV-EC-C assay (3H-thymidine), aFGF. The format is cell-based. Particulars: Homo sapiens, 3H-thymidine incorporation, HUVEC. As for the experimental part:
The following protocol may also be used to measure a compound's activity against PDGF-R, FGF-R or Flk-1/KDR, all of which are naturally expressed by HUV-EC cells. 1. Wash and trypsinize HUV-EC-C cells (human umbilical vein endothelial cells, (American Type Culture Collection; catalogue no. 1730 CRL). Wash with Dulbecco's phosphate-buffered saline (D-PBS; obtained from Gibco BRL, catalogue no. 14190-029) 2 times at about 1 mL/10 CM^2 of tissue culture flask. Trypsinize with 0.05% trypsin-EDTA in non-enzymatic cell dissociation solution (Sigma Chemical Company; catalogue no. C-1544). The 0.05% trypsin was made by diluting 0.25% trypsin/1 mM EDTA (Gibco; catalogue no. 25200-049) in the cell dissociation solution. Trypsinize with about 1 mL/25-30 cm^2 of tissue culture flask for about 5 minutes at 37° C. After cells have detached from the flask, add an equal volume of assay medium and transfer to a 50 mL sterile centrifuge tube (Fisher Scientific; catalogue no. 05-539-6). 2. Wash the cells with about 35 mL assay medium in the 50 mL sterile centrifuge tube by adding the assay medium, centrifuge for 10 minutes at approximately 200×g aspirate the supernatant and resuspend with 35 mL D-PBS. Repeat the wash two more times with D-PBS, resuspend the cells in about 1 mL assay medium/15 cm^2 of tissue culture flask. […]

As to `Cc1cc(/C=C2/C(=O)Nc3ccccc32)c(C)c2c1[nH]c1ccccc12` [VI], the half-inhibitory concentration (IC50) (commonly the concentration that gives 50% inhibition) was 0.63 µM.
